Our source for the IC50 and Ki values is ChEMBL document CHEMBL1151859, “Structure-activity relationship studies of a novel series of anthrax lethal factor inhibitors” (Bioorg Med Chem, 2009).

The target of the assay is T1, Lethal factor (Bacillus anthracis, UniProt P15917).
T1 sequence (P15917 whole entry): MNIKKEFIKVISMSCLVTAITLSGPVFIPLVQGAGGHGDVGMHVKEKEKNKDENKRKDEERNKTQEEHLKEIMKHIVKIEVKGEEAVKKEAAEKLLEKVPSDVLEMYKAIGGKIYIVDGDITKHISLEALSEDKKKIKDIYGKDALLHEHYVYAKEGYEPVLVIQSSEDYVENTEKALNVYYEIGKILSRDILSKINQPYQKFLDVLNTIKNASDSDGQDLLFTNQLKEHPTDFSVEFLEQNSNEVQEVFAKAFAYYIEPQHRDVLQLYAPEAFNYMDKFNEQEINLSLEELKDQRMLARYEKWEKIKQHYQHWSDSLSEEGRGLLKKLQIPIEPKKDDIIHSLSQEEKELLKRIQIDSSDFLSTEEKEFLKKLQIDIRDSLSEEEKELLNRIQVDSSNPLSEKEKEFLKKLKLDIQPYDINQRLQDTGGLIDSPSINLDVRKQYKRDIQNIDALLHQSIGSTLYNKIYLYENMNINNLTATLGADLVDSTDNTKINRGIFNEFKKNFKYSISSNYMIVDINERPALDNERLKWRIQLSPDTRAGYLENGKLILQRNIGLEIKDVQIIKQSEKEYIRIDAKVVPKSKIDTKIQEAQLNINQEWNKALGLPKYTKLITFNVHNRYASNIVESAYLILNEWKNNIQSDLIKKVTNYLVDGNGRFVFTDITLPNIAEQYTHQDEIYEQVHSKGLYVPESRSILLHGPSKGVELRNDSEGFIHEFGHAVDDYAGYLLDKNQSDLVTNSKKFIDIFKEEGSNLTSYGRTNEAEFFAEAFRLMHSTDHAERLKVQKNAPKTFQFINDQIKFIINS
The assay is described as follows: Inhibition of Bacillus anthracis lethal factor assessed as cleavage of MAPKK by fluorescence peptide cleavage assay.
Take `Cc1csc(NS(=O)(=O)c2ccc(Cl)c(Cl)c2)c1-c1nc2ccccc2s1`: the IC50 (usually the concentration that inhibits the measured activity by half) was greater than 100 µM. As for `O=S(=O)(Nc1sccc1-c1nc2ccccc2s1)c1ccc(C(F)(F)F)cc1`, the IC50 came to 11 µM.

With `COc1ccc(-c2ccc(S(=O)(=O)NCCc3nc4ccccc4s3)cc2)cc1`, the IC50 was greater than 50 µM. On to `Cc1csc(NS(=O)(=O)c2cccc(-c3ccccc3)c2)c1-c1nc2ccccc2s1`, for which the IC50 was 19 µM. On the same count and under the same terms, for `COc1ccc(-c2cccc(S(=O)(=O)Nc3sccc3-c3nc4ccccc4s3)c2)cc1` the value was 14 µM; for `O=S(=O)(Nc1sccc1-c1nc2ccccc2s1)c1cccc(C(F)(F)F)c1`, 16 µM; for `Cc1ccc(S(=O)(=O)Nc2scc(C)c2-c2nc3ccccc3s2)cc1`, greater than 100 µM.

Turning to `COc1ccc(-c2ccc(S(=O)(=O)Nc3sccc3-c3nc4ccccc4s3)cc2Cl)cc1`, the IC50 turned out to be 3 µM. Regarding `Cc1ccc(S(=O)(=O)Nc2sccc2-c2nc3ccccc3s2)cc1[N+](=O)[O-]`, the IC50 amounted to 10 µM. Take `O=S(=O)(Nc1sccc1-c1nc2ccccc2s1)c1ccc(F)cc1`: the concentration for half-maximal inhibition (IC50) was 16 µM. Same read-out and setting: for `Cc1csc(NS(=O)(=O)c2ccc(F)cc2)c1-c1nc2ccccc2s1` the value was greater than 100 µM; for `Cc1ccc(S(=O)(=O)Nc2sccc2-c2nc3ccccc3s2)cc1F`, 11 µM. Same read-out and setting: for `Cc1c(S(=O)(=O)Nc2sccc2-c2nc3ccccc3s2)cnn1-c1ccccc1` the value was greater than 50 µM; for `O=S(=O)(Nc1sccc1-c1nc2ccccc2s1)c1ccc(-c2cncs2)cc1`, 12 µM; for `O=S(=O)(Nc1sccc1-c1nc2ccccc2s1)c1ccc(Oc2ccccc2)nc1`, 43 µM. Still for that read-out and setting: with `Cc1csc(N(S(=O)(=O)c2ccc(F)cc2)S(=O)(=O)c2ccc(F)cc2)c1-c1nc2ccccc2s1` the figure was greater than 100 µM; with `CS(=O)(=O)CS(=O)(=O)Nc1sccc1-c1nc2ccccc2s1`, 19 µM.

Turning to `COc1ccc(-c2ccc(S(=O)(=O)Nc3oncc3-c3nc4ccccc4s3)cc2)cc1`, the IC50 was greater than 100 µM. The same measure, in the same setting: with `O=S(=O)(Nc1sccc1-c1nc2ccccc2s1)c1ccc(OC(F)(F)F)cc1` the figure was 9.6 µM; with `O=S(=O)(Nc1sccc1-c1nc2ccccc2s1)c1cccc(-c2ccc(Cl)cc2)c1`, 18 µM; with `Cc1csc(NS(=O)(=O)c2ccc(-c3ccc(Cl)cc3)cc2)c1-c1nc2ccccc2s1`, 12 µM. The same measure, in the same setting: for `Cc1cc(C)n(-c2ccc(S(=O)(=O)Nc3sccc3-c3nc4ccccc4s3)cc2)n1` the value was 11 µM; for `COc1ccccc1Oc1ccc(S(=O)(=O)Nc2sccc2-c2nc3ccccc3s2)cc1`, greater than 50 µM.

On to `N#C/C(=C\c1ccc([N+](=O)[O-])s1)C(=O)c1ccco1`, for which the IC50 is 19 µM and the Ki (usually a measure of affinity in units of concentration, obtained from inhibition or displacement) was found to be 6.6 µM.

In the case of `O=S(=O)(Nc1sccc1-c1nc2ccccc2s1)c1ccccc1C(F)(F)F`, the IC50 was determined as 9.3 µM. Same read-out and setting: for `O=S(=O)(Nc1oncc1-c1nc2ccccc2s1)c1ccc(-c2ccc(Cl)cc2)cc1` the value was greater than 100 µM. Still for that read-out and setting: with `CN1CCOc2cc(S(=O)(=O)Nc3sccc3-c3nc4ccccc4s3)cnc21` the figure was 27 µM. The same measure, in the same setting: with `Nc1sccc1-c1nc2ccccc2s1` the figure was greater than 100 µM; with `Cc1nccc(-c2cccc(S(=O)(=O)Nc3sccc3-c3nc4ccccc4s3)c2)n1`, 12 µM.

`Cc1ccc(-c2ccc(S(=O)(=O)Nc3sccc3-c3nc4ccccc4s3)cc2)cc1`: the IC50 was found to be 28 µM.

Regarding `O=S(=O)(Nc1sccc1-c1nc2ccccc2s1)c1ccc(Cl)c(C(F)(F)F)c1`, the IC50 came out at 10 µM. The same measure, in the same setting: for `Cc1ccc(S(=O)(=O)Nc2scc(C)c2-c2nc3ccccc3s2)cc1F` the value was 35 µM. Same read-out and setting: for `COc1ccc(-c2ccc(S(=O)(=O)Nc3nc4ccccc4s3)cc2)cc1` the value was greater than 50 µM. For `Cc1csc(NS(=O)(=O)c2ccc(Cl)cc2)c1-c1nc2ccccc2s1`, the IC50 was 15 µM and the Ki is 7.8 µM.

As to `O=S(=O)(Nc1sccc1-c1nc2ccccc2s1)c1ccc(-n2cccn2)cc1`, the IC50 came out at 8 µM. The same measure, in the same setting: for `Cc1csc(NS(=O)(=O)c2ccc3ccccc3c2)c1-c1nc2ccccc2s1` the value was 12 µM. As to `O=S(=O)(Nc1sccc1-c1nc2ccccc2s1)c1ccc2nonc2c1`, the IC50 was found to be 30 µM.

As to `COc1ccc(-c2ccc(S(=O)(=O)Nc3ccccc3-c3nc4ccccc4s3)cc2)cc1`, the IC50 was greater than 100 µM. Still for that read-out and setting: with `O=S(=O)(Nc1sccc1-c1nc2ccccc2s1)c1ccc(Br)c(Cl)c1` the figure was 4.5 µM. On the same count and under the same terms, with `O=S(=O)(Nc1sccc1-c1nc2ccccc2s1)c1ccc(-c2ccno2)s1` the figure was 19 µM. Regarding `Cc1ccc(S(=O)(=O)Nc2scc(C)c2-c2nc3ccccc3s2)cc1Cl`, the half-maximal inhibitory concentration (IC50) is 8.9 µM. Same read-out and setting: for `COc1ccc(S(=O)(=O)Nc2sccc2-c2nc3ccccc3s2)cc1` the value was 18 µM; for `Cc1csc(NS(=O)(=O)c2ccccc2C(F)(F)F)c1-c1nc2ccccc2s1`, greater than 100 µM. The same measure, in the same setting: with `Cc1csc(NS(=O)(=O)c2ccc(C(C)(C)C)cc2)c1-c1nc2ccccc2s1` the figure was greater than 100 µM. Same read-out and setting: with `Cc1csc(NS(=O)(=O)c2cccc(C(F)(F)F)c2)c1-c1nc2ccccc2s1` the figure was 9.4 µM.

Regarding `O=S(=O)(Nc1sccc1-c1nc2ccccc2s1)c1ccc(-c2ccc(C(F)(F)F)cc2)cc1`, the IC50 was determined as 8 µM.

Take `O=S(=O)(NCCc1nc2ccccc2s1)c1ccc(-c2ccc(Cl)cc2)cc1`: the IC50 is greater than 50 µM. With `Cc1c(Cl)cccc1S(=O)(=O)Nc1sccc1-c1nc2ccccc2s1`, the concentration for half-maximal inhibition (IC50) is greater than 50 µM. The same measure, in the same setting: with `Cc1csc(NS(=O)(=O)c2cccc(-c3ccc(Cl)cc3)c2)c1-c1nc2ccccc2s1` the figure was 22 µM; with `Cc1csc(N(S(=O)(=O)c2cccc(C(F)(F)F)c2)S(=O)(=O)c2cccc(C(F)(F)F)c2)c1-c1nc2ccccc2s1`, greater than 100 µM; with `O=S(=O)(Nc1sccc1-c1nc2ccccc2s1)c1ccco1`, greater than 50 µM. The same measure, in the same setting: with `O=S(=O)(Nc1sccc1-c1nc2ccccc2s1)c1ccc(Cl)c(Cl)c1` the figure was 9 µM. On the same count and under the same terms, for `O=S(=O)(Nc1sccc1-c1nc2ccccc2s1)c1ccc2cc(Cl)ccc2c1` the value was 11 µM; for `COc1ccc(S(=O)(=O)Nc2scc(C)c2-c2nc3ccccc3s2)cc1OC`, 34 µM. With `CC(=O)Nc1ccc(S(=O)(=O)Nc2sccc2-c2nc3ccccc3s2)cc1`, the IC50 turned out to be 24 µM. Still for that read-out and setting: with `O=S(=O)(Nc1sccc1-c1nc2ccccc2s1)c1ccc2c(c1)OCCO2` the figure was 27 µM; with `O=S(=O)(Nc1sccc1-c1nc2ccccc2s1)c1cccc(-c2ccccc2)c1`, 13 µM. The same measure, in the same setting: with `O=S(=O)(Nc1sccc1-c1nc2ccccc2s1)c1ccc(F)c(Cl)c1` the figure was 13 µM; with `Cc1cc(S(=O)(=O)Nc2scc(C)c2-c2nc3ccccc3s2)ccc1F`, 17 µM.

`O=S(=O)(Nc1sccc1-c1nc2ccccc2s1)c1ccc2c(c1)CCO2`: the IC50 stood at 22 µM. Still for that read-out and setting: with `COc1ccc(-c2cccc(S(=O)(=O)Nc3scc(C)c3-c3nc4ccccc4s3)c2)cc1` the figure was 16 µM.

Turning to `Cc1ccc(S(=O)(=O)Nc2sccc2-c2nc3ccccc3s2)cc1`, the IC50 was 13 µM. On the same count and under the same terms, with `Cc1csc(NS(=O)(=O)c2ccc(F)c(Cl)c2)c1-c1nc2ccccc2s1` the figure was greater than 100 µM. Same read-out and setting: with `O=S(=O)(Nc1sccc1-c1nc2ccccc2s1)c1ccc2ccccc2c1` the figure was 8 µM; with `Cc1csc(NS(=O)(=O)c2ccccc2)c1-c1nc2ccccc2s1`, greater than 100 µM.

Regarding `Cc1csc(NS(=O)(=O)c2cccc(Cl)c2)c1-c1nc2ccccc2s1`, the IC50 was greater than 100 µM.

For the compound `O=S(=O)(Nc1sccc1-c1nc2ccccc2s1)c1ccc(Br)cc1`, the IC50 was determined as 8 µM. Consider `COc1ccc(S(=O)(=O)Nc2scc(C)c2-c2nc3ccccc3s2)cc1`, for which the IC50 stood at 46 µM. Still for that read-out and setting: for `O=S(=O)(Nc1sccc1-c1nc2ccccc2s1)c1ccc(-c2cnco2)cc1` the value was 13 µM. The same measure, in the same setting: with `COc1ccc(S(=O)(=O)Nc2sccc2-c2nc3ccccc3s2)cc1OC` the figure was 19 µM; with `CN1CCOc2cc(S(=O)(=O)Nc3sccc3-c3nc4ccccc4s3)ccc21`, 23 µM; with `Cc1csc(NS(=O)(=O)c2cccc(OC(F)(F)F)c2)c1-c1nc2ccccc2s1`, 11 µM. Take `O=S(=O)(Nc1ccccc1-c1nc2ccccc2s1)c1ccc(-c2ccc(Cl)cc2)cc1`: the IC50 stood at 100 µM.

`O=S(=O)(Nc1sccc1-c1nc2ccccc2s1)c1ccc(-c2ccc(OC(F)(F)F)cc2)cc1`: the IC50 was 3.9 µM.

In the case of `COc1cccc(S(=O)(=O)Nc2scc(C)c2-c2nc3ccccc3s2)c1`, the IC50 is 11 µM. For `COc1ccc(-c2ccc(S(=O)(=O)Nc3scc(C)c3-c3nc4ccccc4s3)cc2)cc1`, the IC50 amounted to 21 µM.

Consider `Cc1ccc(S(=O)(=O)Nc2nc3ccccc3s2)cc1Cl`, for which the IC50 came out at 28 µM. Still for that read-out and setting: with `Cc1csc(NS(=O)(=O)c2ccc(-c3ccccc3)cc2)c1-c1nc2ccccc2s1` the figure was 17 µM; with `O=S(=O)(Nc1sccc1-c1nc2ccccc2s1)c1ccc(Oc2ccccc2Cl)cc1`, 9 µM; with `O=S(=O)(Nc1sccc1-c1nc2ccccc2s1)c1cccc(Cl)c1F`, 30 µM.
